{"source": "ChEMBL document CHEMBL4507276", "about": "(2021)", "key": {"[1]": {"biological_target": "Arachidonate 5-lipoxygenase-activating protein (Homo sapiens, UniProt P20292)", "sequence (P20292 whole entry)": "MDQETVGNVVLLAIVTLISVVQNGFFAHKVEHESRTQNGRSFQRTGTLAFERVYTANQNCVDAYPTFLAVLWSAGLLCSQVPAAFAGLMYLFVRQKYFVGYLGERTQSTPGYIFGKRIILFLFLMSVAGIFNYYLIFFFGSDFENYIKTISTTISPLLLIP", "assay": "Functional inhibition in mouse whole blood", "assay_type": "tissue-based", "conditions": "target entry is the homologue from another species"}, "[2]": {"biological_target": "T1, 5-hydroxytryptamine receptor 3A (Homo sapiens) (UniProt P46098)", "T1 sequence (whole entry)": "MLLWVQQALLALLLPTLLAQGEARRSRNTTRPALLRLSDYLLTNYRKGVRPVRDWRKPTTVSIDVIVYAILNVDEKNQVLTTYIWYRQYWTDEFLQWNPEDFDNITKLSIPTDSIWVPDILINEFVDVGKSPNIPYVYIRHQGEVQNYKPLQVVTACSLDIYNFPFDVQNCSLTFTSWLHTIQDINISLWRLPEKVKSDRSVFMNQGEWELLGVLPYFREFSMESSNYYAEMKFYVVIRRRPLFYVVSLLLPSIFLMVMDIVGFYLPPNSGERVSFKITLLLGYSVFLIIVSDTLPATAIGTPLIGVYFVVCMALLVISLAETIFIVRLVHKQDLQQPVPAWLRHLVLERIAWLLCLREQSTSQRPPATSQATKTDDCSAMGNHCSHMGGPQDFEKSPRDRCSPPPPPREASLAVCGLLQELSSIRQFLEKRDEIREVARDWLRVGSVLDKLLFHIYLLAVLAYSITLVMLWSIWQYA", "assay": "5HT3/H Cerep selectivity data (BI)", "conditions": "Compound concentration 20.0 uM"}, "[3]": {"biological_target": "Sodium-dependent serotonin transporter (Homo sapiens) (UniProt P31645)", "sequence (P31645 whole entry, looked up)": "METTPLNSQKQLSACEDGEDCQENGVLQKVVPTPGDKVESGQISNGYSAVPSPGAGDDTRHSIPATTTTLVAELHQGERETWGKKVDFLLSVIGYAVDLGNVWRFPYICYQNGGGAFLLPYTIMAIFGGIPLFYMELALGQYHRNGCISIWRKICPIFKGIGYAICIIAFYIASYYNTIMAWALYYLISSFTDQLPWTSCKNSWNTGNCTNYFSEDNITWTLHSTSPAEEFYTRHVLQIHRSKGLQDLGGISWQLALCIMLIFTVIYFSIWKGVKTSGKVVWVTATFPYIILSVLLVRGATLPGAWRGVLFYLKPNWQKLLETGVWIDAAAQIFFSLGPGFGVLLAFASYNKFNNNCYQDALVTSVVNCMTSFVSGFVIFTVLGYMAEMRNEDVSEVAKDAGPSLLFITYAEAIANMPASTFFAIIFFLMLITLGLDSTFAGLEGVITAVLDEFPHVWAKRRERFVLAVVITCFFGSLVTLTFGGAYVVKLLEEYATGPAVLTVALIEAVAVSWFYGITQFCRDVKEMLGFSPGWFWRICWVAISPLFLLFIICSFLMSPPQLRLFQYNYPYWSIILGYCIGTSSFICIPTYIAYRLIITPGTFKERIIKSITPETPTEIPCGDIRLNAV", "assay": "5HTTRANS/H Cerep selectivity data (BI)", "conditions": "Compound concentration 20.0 uM"}, "[4]": {"biological_target": "Alpha-2B adrenergic receptor (Homo sapiens) (UniProt P18089)", "sequence (P18089 whole entry)": "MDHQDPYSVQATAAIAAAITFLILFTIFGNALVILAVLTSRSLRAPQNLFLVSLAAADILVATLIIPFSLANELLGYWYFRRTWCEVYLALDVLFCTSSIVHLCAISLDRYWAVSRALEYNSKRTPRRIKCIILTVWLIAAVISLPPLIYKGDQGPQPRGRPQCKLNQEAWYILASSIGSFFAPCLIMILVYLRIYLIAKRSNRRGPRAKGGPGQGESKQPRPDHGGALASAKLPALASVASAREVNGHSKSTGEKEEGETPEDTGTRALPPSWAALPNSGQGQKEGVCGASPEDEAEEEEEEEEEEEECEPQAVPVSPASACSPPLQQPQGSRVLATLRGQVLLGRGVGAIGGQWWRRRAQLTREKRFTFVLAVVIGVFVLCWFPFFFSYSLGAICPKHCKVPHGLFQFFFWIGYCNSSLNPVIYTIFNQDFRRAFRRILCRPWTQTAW", "assay": "ALPHA2BH_ANTAG Cerep selectivity data (BI)", "conditions": "filed as antagonist, Compound concentration 20.0 uM"}, "[5]": {"biological_target": "Glutamate receptor ionotropic, AMPA (Rattus norvegicus) (UniProt P19491+P19492+P19493+P19490)", "assay": "AMPA/R Cerep selectivity data (BI)", "assay_type": "protein-complex assay", "conditions": "Compound concentration 20.0 uM"}, "[6]": {"biological_target": "D(1A) dopamine receptor (Homo sapiens) (UniProt P21728)", "assay": "D1/H Cerep selectivity data (BI)", "conditions": "filed as antagonist, Compound concentration 20.0 uM"}, "[7]": {"biological_target": "Endothelin-1 receptor (Homo sapiens) (UniProt P25101)", "sequence (P25101 whole entry)": "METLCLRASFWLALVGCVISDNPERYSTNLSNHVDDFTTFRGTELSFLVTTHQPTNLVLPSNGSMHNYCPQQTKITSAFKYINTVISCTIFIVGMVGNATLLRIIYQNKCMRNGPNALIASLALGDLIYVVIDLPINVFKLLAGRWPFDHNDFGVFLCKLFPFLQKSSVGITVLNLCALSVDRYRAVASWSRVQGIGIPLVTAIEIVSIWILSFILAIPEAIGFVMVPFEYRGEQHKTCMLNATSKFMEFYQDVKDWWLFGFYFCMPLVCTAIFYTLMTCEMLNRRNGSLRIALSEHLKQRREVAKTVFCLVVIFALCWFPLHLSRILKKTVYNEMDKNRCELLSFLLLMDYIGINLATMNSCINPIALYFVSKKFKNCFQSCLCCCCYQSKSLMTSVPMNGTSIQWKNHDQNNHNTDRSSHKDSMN", "assay": "ETA/H Cerep selectivity data (BI)", "conditions": "Compound concentration 20.0 uM"}, "[8]": {"biological_target": "T2, Muscarinic acetylcholine receptor M1 (Homo sapiens) (UniProt P11229)", "T2 sequence (whole entry)": "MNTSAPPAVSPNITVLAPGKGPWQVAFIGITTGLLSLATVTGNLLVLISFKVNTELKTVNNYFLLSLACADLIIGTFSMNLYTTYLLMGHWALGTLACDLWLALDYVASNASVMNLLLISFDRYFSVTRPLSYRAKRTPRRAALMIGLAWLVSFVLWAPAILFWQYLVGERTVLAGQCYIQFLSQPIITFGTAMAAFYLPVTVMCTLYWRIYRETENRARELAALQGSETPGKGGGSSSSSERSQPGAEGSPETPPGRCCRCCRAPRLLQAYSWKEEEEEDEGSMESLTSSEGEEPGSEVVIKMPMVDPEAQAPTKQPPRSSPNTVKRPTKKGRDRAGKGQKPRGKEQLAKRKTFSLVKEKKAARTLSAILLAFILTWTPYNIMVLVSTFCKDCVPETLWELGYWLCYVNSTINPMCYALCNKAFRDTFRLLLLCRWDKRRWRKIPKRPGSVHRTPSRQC", "assay": "M1/H Cerep selectivity data (BI)", "conditions": "Compound concentration 20.0 uM"}, "[9]": {"biological_target": "Mitogen-activated protein kinase 14 (Homo sapiens) (UniProt Q16539)", "sequence (Q16539 whole entry)": "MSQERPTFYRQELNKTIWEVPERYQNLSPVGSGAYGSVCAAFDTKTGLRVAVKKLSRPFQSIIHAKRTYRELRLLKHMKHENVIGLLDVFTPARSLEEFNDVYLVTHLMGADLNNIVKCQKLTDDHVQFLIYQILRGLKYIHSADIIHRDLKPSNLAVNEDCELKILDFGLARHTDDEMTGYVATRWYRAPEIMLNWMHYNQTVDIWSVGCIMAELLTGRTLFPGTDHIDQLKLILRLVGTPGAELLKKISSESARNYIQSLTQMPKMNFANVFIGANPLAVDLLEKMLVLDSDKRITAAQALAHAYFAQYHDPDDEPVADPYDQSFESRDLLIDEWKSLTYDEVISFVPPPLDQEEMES", "assay": "P38ALPHA_CE Cerep selectivity data (BI)", "conditions": "Compound concentration 20.0 uM"}, "[10]": {"biological_target": "Beta-2 adrenergic receptor (Homo sapiens) (UniProt P07550)", "sequence (P07550 whole entry, looked up)": "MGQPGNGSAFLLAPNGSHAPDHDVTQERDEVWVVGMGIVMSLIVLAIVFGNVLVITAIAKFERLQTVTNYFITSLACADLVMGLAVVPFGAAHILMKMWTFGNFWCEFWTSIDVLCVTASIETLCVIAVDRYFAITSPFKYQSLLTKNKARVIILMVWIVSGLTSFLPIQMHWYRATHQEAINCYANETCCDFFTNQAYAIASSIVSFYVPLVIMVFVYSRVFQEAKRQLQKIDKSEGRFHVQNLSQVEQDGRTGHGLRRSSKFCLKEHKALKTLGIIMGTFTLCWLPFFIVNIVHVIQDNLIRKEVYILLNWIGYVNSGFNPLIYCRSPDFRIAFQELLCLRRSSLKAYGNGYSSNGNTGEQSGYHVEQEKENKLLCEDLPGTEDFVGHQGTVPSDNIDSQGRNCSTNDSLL", "assay": "BETA2/HU Eurofins-Panlabs selectivity data (BI)", "conditions": "Compound concentration 10.0 uM"}, "[11]": {"biological_target": "Muscarinic acetylcholine receptor M3 (Homo sapiens) (UniProt P20309)", "sequence (P20309 whole entry, looked up)": "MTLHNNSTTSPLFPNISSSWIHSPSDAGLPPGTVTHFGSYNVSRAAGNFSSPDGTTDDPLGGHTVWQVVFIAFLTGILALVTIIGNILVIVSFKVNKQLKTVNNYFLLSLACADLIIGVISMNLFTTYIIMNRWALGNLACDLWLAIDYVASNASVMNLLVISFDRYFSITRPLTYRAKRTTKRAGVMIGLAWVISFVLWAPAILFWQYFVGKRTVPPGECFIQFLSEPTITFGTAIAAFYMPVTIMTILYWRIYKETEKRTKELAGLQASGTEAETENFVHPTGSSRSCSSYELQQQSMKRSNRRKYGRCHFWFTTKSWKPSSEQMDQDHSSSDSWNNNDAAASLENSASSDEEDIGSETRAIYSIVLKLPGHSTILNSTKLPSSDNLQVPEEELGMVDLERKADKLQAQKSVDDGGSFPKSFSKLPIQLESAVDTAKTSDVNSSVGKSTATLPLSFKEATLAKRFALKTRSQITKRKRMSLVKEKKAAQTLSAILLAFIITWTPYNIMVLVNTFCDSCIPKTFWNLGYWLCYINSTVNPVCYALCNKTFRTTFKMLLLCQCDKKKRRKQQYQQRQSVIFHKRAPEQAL", "assay": "M3/HU Eurofins-Panlabs selectivity data (BI)", "conditions": "Compound concentration 10.0 uM"}, "[12]": {"biological_target": "Cyclin-dependent kinase 1/cyclin B (Homo sapiens) (UniProt P06493+P14635+Q8WWL7+O95067)", "assay": "CDK1/CYCLINB Invitrogen selectivity data (BI)", "assay_type": "protein-complex assay", "conditions": "Compound concentration 3.0 uM"}, "[13]": {"tested_on": "Mast/stem cell growth factor receptor Kit (Homo sapiens), P10721 [T670I]", "assay": "KIT T670I Invitrogen selectivity data (BI)", "conditions": "Compound concentration 3.0 uM"}, "[14]": {"biological_target": "MAP kinase-activated protein kinase 3 (Homo sapiens) (UniProt Q16644)", "sequence (Q16644 whole entry, looked up)": "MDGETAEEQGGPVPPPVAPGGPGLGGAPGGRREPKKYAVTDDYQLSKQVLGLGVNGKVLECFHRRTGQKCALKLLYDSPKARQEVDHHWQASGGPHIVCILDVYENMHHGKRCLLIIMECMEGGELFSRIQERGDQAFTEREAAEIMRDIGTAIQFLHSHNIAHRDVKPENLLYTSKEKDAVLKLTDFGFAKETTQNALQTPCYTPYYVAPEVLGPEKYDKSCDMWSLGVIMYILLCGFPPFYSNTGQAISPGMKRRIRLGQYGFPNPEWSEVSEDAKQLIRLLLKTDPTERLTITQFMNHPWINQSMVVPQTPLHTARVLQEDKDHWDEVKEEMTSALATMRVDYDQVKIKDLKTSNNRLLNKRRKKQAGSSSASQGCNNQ", "assay": "MAPKAPK3 Invitrogen selectivity data (BI)", "conditions": "Compound concentration 3.0 uM"}, "[15]": {"biological_target": "BDNF/NT-3 growth factors receptor (Homo sapiens) (UniProt Q16620)", "sequence (Q16620 32-822 limits assumed)": "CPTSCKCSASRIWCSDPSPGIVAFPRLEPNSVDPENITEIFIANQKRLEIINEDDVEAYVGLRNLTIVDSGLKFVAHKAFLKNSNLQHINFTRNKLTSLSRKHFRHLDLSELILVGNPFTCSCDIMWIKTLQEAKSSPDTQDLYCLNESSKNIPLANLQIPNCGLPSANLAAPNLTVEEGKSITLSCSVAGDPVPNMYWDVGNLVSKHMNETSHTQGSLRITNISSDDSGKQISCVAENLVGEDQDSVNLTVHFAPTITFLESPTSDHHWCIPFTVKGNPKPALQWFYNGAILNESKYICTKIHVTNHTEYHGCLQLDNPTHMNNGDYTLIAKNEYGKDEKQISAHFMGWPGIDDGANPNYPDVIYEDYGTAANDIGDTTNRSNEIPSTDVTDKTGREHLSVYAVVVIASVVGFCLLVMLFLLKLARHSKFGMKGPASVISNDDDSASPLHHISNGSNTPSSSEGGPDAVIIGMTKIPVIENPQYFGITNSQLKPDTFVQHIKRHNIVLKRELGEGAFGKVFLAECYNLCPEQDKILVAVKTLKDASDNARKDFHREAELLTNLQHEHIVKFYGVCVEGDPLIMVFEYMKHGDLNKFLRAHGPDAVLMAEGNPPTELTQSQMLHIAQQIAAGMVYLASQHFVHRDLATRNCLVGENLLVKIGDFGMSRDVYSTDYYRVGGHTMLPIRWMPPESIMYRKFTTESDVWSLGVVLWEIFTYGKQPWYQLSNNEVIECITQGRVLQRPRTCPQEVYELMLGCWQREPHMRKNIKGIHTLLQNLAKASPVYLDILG", "assay": "NTRK2 Invitrogen selectivity data (BI)", "conditions": "Compound concentration 3.0 uM"}, "[16]": {"biological_target": "Platelet-derived growth factor receptor beta (Homo sapiens) (UniProt P09619)", "assay": "PDGFRB Invitrogen selectivity data (BI)", "conditions": "Compound concentration 3.0 uM"}, "[17]": {"biological_target": "STE20-like serine/threonine-protein kinase (Homo sapiens) (UniProt Q9H2G2)", "assay": "SLK Invitrogen selectivity data (BI)", "conditions": "Compound concentration 3.0 uM"}, "[18]": {"biological_target": "T3, Tyrosine-protein kinase Tec (Homo sapiens) (UniProt P42680)", "T3 sequence (whole entry)": "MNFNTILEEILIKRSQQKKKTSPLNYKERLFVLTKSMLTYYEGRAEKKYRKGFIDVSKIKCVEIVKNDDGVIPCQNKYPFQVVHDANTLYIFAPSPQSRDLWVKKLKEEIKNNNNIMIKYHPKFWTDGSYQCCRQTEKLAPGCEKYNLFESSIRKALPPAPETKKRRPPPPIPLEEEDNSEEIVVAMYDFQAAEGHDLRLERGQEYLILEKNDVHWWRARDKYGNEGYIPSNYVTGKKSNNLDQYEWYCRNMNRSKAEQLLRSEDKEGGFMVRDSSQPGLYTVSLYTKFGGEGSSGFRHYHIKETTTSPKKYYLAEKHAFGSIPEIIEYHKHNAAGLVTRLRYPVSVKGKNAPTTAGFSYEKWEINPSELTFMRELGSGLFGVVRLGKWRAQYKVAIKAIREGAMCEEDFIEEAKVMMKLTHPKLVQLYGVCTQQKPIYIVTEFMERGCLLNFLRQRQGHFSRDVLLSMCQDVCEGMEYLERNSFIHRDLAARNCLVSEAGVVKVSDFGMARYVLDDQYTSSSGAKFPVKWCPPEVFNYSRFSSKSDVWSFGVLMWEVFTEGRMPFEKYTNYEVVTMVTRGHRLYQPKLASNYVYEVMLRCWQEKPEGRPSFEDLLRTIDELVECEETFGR", "assay": "TEC Invitrogen selectivity data (BI)", "conditions": "Compound concentration 3.0 uM"}, "[19]": {"biological_target": "Alpha-1D adrenergic receptor (Homo sapiens) (UniProt P25100)", "sequence (P25100 whole entry)": "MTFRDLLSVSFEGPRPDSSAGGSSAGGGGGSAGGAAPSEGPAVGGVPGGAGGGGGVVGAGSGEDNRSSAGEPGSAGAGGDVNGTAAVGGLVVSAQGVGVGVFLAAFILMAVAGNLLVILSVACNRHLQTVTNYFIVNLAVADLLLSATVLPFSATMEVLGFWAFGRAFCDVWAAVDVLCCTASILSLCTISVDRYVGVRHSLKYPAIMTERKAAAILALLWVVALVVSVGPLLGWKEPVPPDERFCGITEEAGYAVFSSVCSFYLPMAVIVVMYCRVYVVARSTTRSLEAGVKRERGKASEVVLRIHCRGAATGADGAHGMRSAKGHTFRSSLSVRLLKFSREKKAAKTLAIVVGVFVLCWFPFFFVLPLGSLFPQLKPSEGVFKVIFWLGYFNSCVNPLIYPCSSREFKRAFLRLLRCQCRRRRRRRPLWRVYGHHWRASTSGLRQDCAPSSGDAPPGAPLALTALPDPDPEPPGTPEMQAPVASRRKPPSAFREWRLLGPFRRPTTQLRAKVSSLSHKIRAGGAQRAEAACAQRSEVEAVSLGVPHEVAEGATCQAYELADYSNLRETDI", "conditions": "Compound concentration 10.0 uM"}}}
{"smiles": "CN(C)C(=O)Cn1cc(-c2nc([C@@](C)(c3ccc(-c4cnc(N)nc4)cc3)C3CC3)no2)cn1", "note": "[BI 665915]", "values": [{"measurement": "IC50", "setting": "[1]", "result": 4.8, "unit": "µM"}, {"measurement": "residual activity", "setting": "[2]", "result": 100, "unit": "%"}, {"measurement": "residual activity", "setting": "[3]", "result": 103, "unit": "%"}, {"measurement": "residual activity", "setting": "[4]", "result": 100, "unit": "%"}, {"measurement": "residual activity", "setting": "[5]", "result": 105, "unit": "%"}, {"measurement": "residual activity", "setting": "[6]", "result": 98, "unit": "%"}, {"measurement": "residual activity", "setting": "[7]", "result": 102, "unit": "%"}, {"measurement": "residual activity", "setting": "[8]", "result": 99, "unit": "%"}, {"measurement": "residual activity", "setting": "[9]", "result": 113, "unit": "%"}, {"measurement": "residual activity", "setting": "[10]", "result": 101, "unit": "%"}, {"measurement": "residual activity", "setting": "[11]", "result": 105, "unit": "%"}, {"measurement": "residual activity", "setting": "[12]", "result": 99, "unit": "%"}, {"measurement": "residual activity", "setting": "[13]", "result": 93, "unit": "%"}, {"measurement": "residual activity", "setting": "[14]", "result": 98.5, "unit": "%"}, {"measurement": "residual activity", "setting": "[15]", "result": 94.5, "unit": "%"}, {"measurement": "residual activity", "setting": "[16]", "result": 94.5, "unit": "%"}, {"measurement": "residual activity", "setting": "[17]", "result": 99, "unit": "%"}, {"measurement": "residual activity", "setting": "[18]", "result": 103, "unit": "%"}, {"measurement": "inhibition", "setting": "[19]", "result": -3.06, "unit": "%"}]}
